One molecule from patent publication US11202776B2, “Treatment of gastroparesis with triazaspiro[4.5]decanone” (Millennium Pharmaceuticals, Inc., priority 2017, dated 2021) can be followed below.

Structures are written as SMILES.

A short description of data set [1]: Phase I single-ascending dose (SAD) pharmacokinetics incl. food effect, plasma concentration of the Compound. Type of data set: in vivo, human. The following applies: single PO dose, over 24 h. The protocol: (§1) A phase I randomized, double-blind, placebo-controlled, adaptive-design, single-ascending dose (SAD) and multiple-ascending dose (MAD) study was conducted in healthy human subjects to evaluate the safety, tolerability, pharmacokinetics (PK), pharmacodynamics (PD), food effect, and optimal oral dose of 3-((1-cyclohexyl-4-oxo-8-(4-oxo-4-phenylbutyl)-1,3,8-triazaspiro[4.5]decan-3-yl)methyl)benzoic acid maleate (hereinafter, “the Maleate Salt”). The SAD phase included an arm to evaluate food effect on the PK of the Maleate Salt. The SAD phase also evaluated the effect of the Maleate Salt on ECG parameters, including an assessment of QT-interval changes using exposure-response analysis.
(§2) The Maleate Salt was formulated in the study as immediate-release, hard gelatin capsules for oral administration. Each capsule contained 5 mg or 25 mg of the Maleate Salt, as well as microcrystalline cellulose NF (AVICEL® PH-102), sodium starch glycolate NF (EXPLOTAB®), and magnesium stearate NF, all filled into a size 3 hard gelatin capsule. A matching placebo containing the same amount of microcrystalline cellulose NF in place of the Maleate Salt was used in the study. The Maleate Salt capsules and matching placebo capsules were packaged in high-density polyethylene (HDPE) bottles with polypropylene caps and stored at controlled conditions per the USP.
(§3) A total of 54 subjects received at least 1 dose of the Maleate Salt, ranging from 5 mg to the maximum single PO dose of 300 mg. Six subjects received a maximum single PO dose of 300 mg and 5 subjects received a total of 900 mg of the Maleate Salt over 5-day period (100 mg BID for 4 days with single 100 mg on Day 5).
The SAD phase had 7 cohorts dosed at 5 mg (cohort 1), 10 mg (cohort 2), 25 mg (cohort 3), 50 mg (cohort 4), 100 mg (cohort 5), 200 mg (cohort 6), and 300 mg (cohort 7) of the Maleate Salt. In each cohort, there were 6 active- and 2 placebo-treated subjects. Subjects were administered the Maleate Salt in the fasting state with 1 exception: subjects in the 25 mg cohort (cohort 3) received the Maleate Salt while fasting and again after a high-fat breakfast to determine food effect on PK.
Mean plasma concentration-time profiles for 3-((1-cyclohexyl-4-oxo-8-(4-oxo-4-phenylbutyl)-1,3,8-triazaspiro[4.5]decan-3-yl)methyl)benzoic acid (hereinafter, “the Compound”) following a single PO dose of the Maleate Salt are shown in FIG. 1.
In evaluating food effect on the PK of the Maleate Salt, subjects on Day 1 in cohort 3 were administered a single dose of the Maleate Salt at 25 mg or placebo in the fasted state. On Day 3, the same subjects received an identical dose 30 minutes after consumption of a standardized, high-fat, high-calorie breakfast.

A short description of data set [2]: Phase I multiple-ascending dose (MAD) pharmacokinetics, BID Days 1-4 and single morning dose Day 5. Type of data set: in vivo, human. Particulars: MAD phase, 50 or 100 mg BID. The protocol: as §1, §2, §3
The MAD phase had 2 cohorts dosed at 50 and 100 mg of the Maleate Salt. In each cohort, there were 6 active- and 2 placebo-treated subjects. The Maleate Salt was administered to fasting subjects BID (morning and evening) on Days 1 through 4 and as a single morning dose on Day 5.
On Day 1, mean T1/2 was approximately 2 h for both 50 and 100 mg BID doses. On Day 5, mean T1/2 was 11.0 and 6.2 h following 50 and 100 mg BID doses, respectively. For T1/2 determination, the plasma samples for Day 1 were only collected to 12 h, whereas the plasma samples for Day 5 were collected to 24 h.

Turning to `O=C(O)c1cccc(CN2CN(C3CCCCC3)C3(CCN(CCCC(=O)c4ccccc4)CC3)C2=O)c1` [Compound 1, 3-((1-cyclohexyl-4-oxo-8-(4-oxo-4-phenylbutyl)-1,3,8-triazaspiro[4.5]decan-3-yl)methyl)benzoic acid], the Plasma concentration-time profile result in data set [1] is “rapid absorption and rapid elimination”; in data set [2] it was “rapid absorption and rapid elimination”.
